Data on four substances can be found in patent US11214803B2, “Modulators of YAP1 expression” (Ionis Pharmaceuticals, Inc., priority 2019, dated 2022).

Series [1] has as its system Yap1 mRNA. The series can be described thus: Yap1 mRNA in NCI H292 cells, RNA analysis (Example 32). The series is classed as cell-based, human. Conditions: free uptake, approximately 48 hours. How it is done: Modified oligonucleotides described in the studies above were tested at various doses in mucoepidermoid pulmonary carcinoma cell line […]. A control oligonucleotide 792169 was also tested.
Cultured NCI H292 cells at a density of 5000 cells per well were treated using free uptake with modified oligonucleotides diluted to concentrations described in the tables below. After approximately 48 hours, Yap1 mRNA levels were measured as previously described using the Human Yap1 primer-probe set RTS4814. Yap1 mRNA levels were normalized to actin-beta content, as measured by primer probe set RTS5002. Results are presented in the tables below as percent control of the amount of Yap1 mRNA relative to untreated control cells (% UTC).

Series [2] concerns Yap1 mRNA. The series can be described thus: Yap1 mRNA in BICR-22 cells, RNA analysis (Example 35). It is filed as cell-based, human. Conditions: free uptake, approximately 48 hours. As to the method: Modified oligonucleotides described in the studies above were tested at various doses in tongue squamous carcinoma (lymph node metastasis) cell line BICR-22. A control oligonucleotide 792169, described herein above, was also tested.
Cultured BICR-22 cells at a density of 5000 cells per well were treated using free uptake with modified oligonucleotides diluted to concentrations described in the tables below. After approximately 48 hours, Yap1 mRNA levels were measured as previously described using the Human Yap1 primer-probe set RTS4814. Yap1 mRNA levels were normalized to actin-beta content, as measured by primer probe set RTS5002. Results are presented in the tables below as percent control of the amount of Yap1 mRNA relative to untreated control cells (% UTC).

In series [3] the test system is Yap1 mRNA. The series can be described thus: Yap1 mRNA in CAL27 cells, RNA analysis (Example 37). It is filed as cell-based, human. Conditions: free uptake, approximately 48 hours. How it is done: Modified oligonucleotides described in the studies above were tested at various doses in tongue squamous cell carcinoma line CAL27. A control oligonucleotide 792169, described herein above, was also tested.
Cultured CAL27 cells at a density of 5000 cells per well were treated using free uptake with modified oligonucleotides diluted to concentrations described in the tables below. After approximately 48 hours, Yap1 mRNA levels were measured as previously described using the Human Yap1 primer-probe set RTS4814. Yap1 mRNA levels were normalized to actin-beta content, as measured by primer probe set RTS5002. Results are presented in the tables below as percent control of the amount of Yap1 mRNA relative to untreated control cells (% UTC).

The test system of series [4] is Yap1 mRNA. Kind of series: Yap1 mRNA in Detroit-562 cells, RNA analysis (Example 38). The series is classed as cell-based, human. The following applies: free uptake, approximately 48 hours. As to the method:
Modified oligonucleotides described in the studies above were tested at various doses in pharynx carcinoma cell line Detroit-562. A control oligonucleotide 792169, described herein above, was also tested.
Cultured Detroit-562 cells at a density of 5000 cells per well were treated using free uptake with modified oligonucleotides diluted to concentrations described in the tables below. After approximately 48 hours, Yap1 mRNA levels were measured as previously described using the Human Yap1 primer-probe set RTS4814. Yap1 mRNA levels were normalized to actin-beta content, as measured by primer probe set RTS5002. Results are presented in the tables below as percent control of the amount of Yap1 mRNA relative to untreated control cells (% UTC).

For series [5], the system named is SCC-9 cells. The series can be described thus: Cell proliferation assay in SCC-9 cells, CellTiter-Glo (Example 40). It is filed as cell-based, human. The following applies: free uptake, approximately 144 hours. As to the method:
Modified oligonucleotides described in the studies above were tested at various doses in tongue squamous cell carcinoma cell line SCC-9. A control oligonucleotide 792169, described herein above, was also tested.
Cultured SCC-9 cells at a density of 1000 cells/well were treated using free uptake with modified oligonucleotides diluted to concentrations described in the tables below. After approximately 144 hours, cell proliferation was measured using the luminescent cell viability CellTiter-Glo® 2.0 Assay (Promega). Results are presented in the tables below as percent control of the amount of luminescence in samples treated with modified oligonucleotides relative to untreated control cells (% UTC).
Background: In ATP-based viability assays light output follows the ATP content of the culture.

The test system of series [6] is SNU-899 cells. The series can be described thus: Cell proliferation assay in SNU-899 cells, CellTiter-Glo (Example 43). Conditions: free uptake, approximately 144 hours. The series is classed as cell-based, human. How it is done:
Modified oligonucleotides described in the studies above were tested at various doses in laryngeal squamous cell carcinoma cell line SNU-899. A control oligonucleotide 792169, described herein above, was also tested.
Cultured SNU-899 cells at a density of 1000 cells/well were treated using free uptake with modified oligonucleotides diluted to concentrations described in the tables below. After approximately 144 hours, cell proliferation was measured using the luminescent cell viability CellTiter-Glo® 2.0 Assay (Promega). Results are presented in the tables below as percent control of the amount of luminescence in samples treated with modified oligonucleotides relative to untreated control cells (% UTC).

The subject of series [7] is SNU-1214 cells. Kind of series: Cell proliferation assay in SNU-1214 cells, CellTiter-Glo (Example 46). The series is classed as cell-based, human. The following applies: free uptake, approximately 144 hours. As to the method: Modified oligonucleotides described in the studies above were tested at various doses in laryngeal squamous cell carcinoma cell line […]. A control oligonucleotide 792169, described herein above, was also tested.
Cultured SNU-1214 cells at a density of 1000 cells/well were treated using free uptake with modified oligonucleotides diluted to concentrations described in the tables below. After approximately 144 hours, cell proliferation was measured using the luminescent cell viability CellTiter-Glo® 2.0 Assay (Promega). Results are presented in the tables below as percent control of the amount of luminescence in samples treated with modified oligonucleotides relative to untreated control cells (% UTC).

The nature of series [8]: Tolerability in CD-1 mice, plasma chemistry markers (Example 19). The following applies: male CD-1 mice, 50 mg/kg s.c. twice a week for four weeks (8 treatments), day 26. It is filed as in vivo. How it is done: CD-1 mice were treated with modified oligonucleotides selected from studies described above and evaluated for changes in the levels of various plasma chemistry markers.
Groups of four male CD-1 mice at 4-6 weeks of age (obtained from Charles River) were injected subcutaneously twice a week for four weeks (for a total of 8 treatments) with 50 mg/kg of modified oligonucleotides. One group of male CD-1 mice was injected with PBS. Mice were euthanized on day 26 post start of treatment (24 hrs following the final administration).

Strand notation (5' to 3'): a small letter for the sugar, then the base; units joined by * are phosphorothioate-linked, units joined directly phosphodiester-linked; [ ] holds rarer units or linkages, { } end groups; capitals alone tell only the bases. k = constrained ethyl (cEt); [5mC] = 5-methylcytosine; d = 2'-deoxy (DNA)

Turning to “715487 (kA*kT*kT*dA*d[5mC]*dT*dT*d[5mC]*dA*dT*dA*dG*d[5mC]*kT*kT*kA) [compound 715487]”, the “human Yap1 mRNA expression” value in series [1] (0.04 μM) stood at 104 % UTC; in series [1] (0.2 μM) it was 83 % UTC; in series [1] (1 μM), 40 % UTC; in series [1] (5 μM), 12 % UTC; in series [2] (0.04 μM) it was 82 % UTC; in series [2] (0.2 μM), 45 % UTC. The “human Yap1 mRNA expression” value in series [2] (1 μM) is given as 23 % UTC; in series [2] (5 μM), 13 % UTC; in series [3] (0.08 μM), 35 % UTC; in series [3] (0.4 μM) it was 23 % UTC; in series [3] (2 μM), 5 % UTC; in series [3] (10 μM), 3 % UTC. Further, the “human Yap1 mRNA expression” value in series [4] (0.04 μM) is 77 % UTC; in series [4] (0.2 μM), 29 % UTC; in series [4] (1 μM), 10 % UTC; in series [4] (5 μM) it was 5 % UTC. Further, the “Antiproliferative effect (cell proliferation, luminescence)” value (“Antiproliferative effect” for short) in series [5] (0.04 μM) was found to be 97 % UTC; in series [5] (0.2 μM) it was 73 % UTC; in series [5] (1 μM), 51 % UTC; in series [5] (5 μM) it was 34 % UTC; in series [6] (0.04 μM), 82 % UTC; in series [6] (0.2 μM), 78 % UTC. Besides, the “Antiproliferative effect” value in series [6] (1 μM) is reported as 71 % UTC; in series [6] (5 μM), 62 % UTC; in series [7] (0.04 μM), 93 % UTC; in series [7] (0.2 μM) it was 69 % UTC; in series [7] (1 μM) it was 52 % UTC; in series [7] (5 μM), 38 % UTC.
In series [8], “1198439 (AGTGTATGTCAGAAGA; sugar, 5-methylcytosine, phosphorothioate modifications, further chemistry not given here) [compound 1198439]” came in with an ALT of 210 U/L, an AST of 219 U/L, a BUN of 18 mg/dL and a TBIL of 0.25 mg/dL.
In series [8], “1198872 (TGTATGTCAGAAGAGT; chemically modified gapmer, further chemistry not given here) [compound 1198872]” came in with an ALT of 192 U/L, an AST of 207 U/L, a BUN of 22 mg/dL and a TBIL of 0.25 mg/dL.
Consider “CGCCGATAAGGTACAC (cEt gapmer, phosphorothioate backbone, further chemistry not given here) [ION 792169, reference compound]”, for which the “human Yap1 mRNA expression” value in series [1] (0.04 μM) is 98 % UTC; in series [1] (0.2 μM) it was 112 % UTC; in series [1] (1 μM) it was 111 % UTC; in series [1] (5 μM), 106 % UTC; in series [2] (0.04 μM), 99 % UTC; in series [2] (0.2 μM), 98 % UTC. For the same substance, the “human Yap1 mRNA expression” value in series [2] (1 μM) was 98 % UTC; in series [2] (5 μM) it was 98 % UTC; in series [3] (0.08 μM), 95 % UTC; in series [3] (0.4 μM) it was 90 % UTC; in series [3] (2 μM), 97 % UTC; in series [3] (10 μM) it was 88 % UTC. Also, the “human Yap1 mRNA expression” value stood at 102 % UTC in series [4] (0.04 μM), 102 % UTC in series [4] (0.2 μM), 94 % UTC in series [4] (1 μM) and 99 % UTC in series [4] (5 μM). Further, the “Antiproliferative effect” value worked out at 104 % UTC in series [5] (0.04 μM); 111 % UTC in series [5] (0.2 μM); 102 % UTC in series [5] (1 μM); 94 % UTC in series [5] (5 μM); 90 % UTC in series [6] (0.04 μM); 94 % UTC in series [6] (0.2 μM). For the same substance, the “Antiproliferative effect” value in series [6] (1 μM) is listed as 96 % UTC; in series [6] (5 μM), 86 % UTC; in series [7] (0.04 μM), 105 % UTC; in series [7] (0.2 μM), 90 % UTC; in series [7] (1 μM), 96 % UTC; in series [7] (5 μM), 72 % UTC.
